pIC50, pKi: −log10 of the molar value. Where “and” joins values, the source holds several entries; their conditions need not be identical. Identical values can stand only once.

Data set [1] in a line: kinact was determined; NTD = Not time dependent. Format: ADME.
The target in data set [2] is T1, Aromatase (Homo sapiens, UniProt P11511).
T1 sequence (P11511 whole entry): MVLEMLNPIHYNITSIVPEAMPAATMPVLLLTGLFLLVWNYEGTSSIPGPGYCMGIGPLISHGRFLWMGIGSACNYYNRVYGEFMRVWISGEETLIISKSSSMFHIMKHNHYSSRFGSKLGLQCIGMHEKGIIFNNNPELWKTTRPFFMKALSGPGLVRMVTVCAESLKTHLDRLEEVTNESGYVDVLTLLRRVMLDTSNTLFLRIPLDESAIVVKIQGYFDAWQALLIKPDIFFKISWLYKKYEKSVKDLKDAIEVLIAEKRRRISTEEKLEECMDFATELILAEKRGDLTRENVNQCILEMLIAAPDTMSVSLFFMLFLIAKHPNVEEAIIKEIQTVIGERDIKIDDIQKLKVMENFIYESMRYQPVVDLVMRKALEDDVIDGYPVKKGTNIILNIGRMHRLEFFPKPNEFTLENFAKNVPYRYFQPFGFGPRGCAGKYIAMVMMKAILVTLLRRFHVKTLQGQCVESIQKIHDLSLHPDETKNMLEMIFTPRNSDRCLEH
In words: Inhibition of cytochrome P450 19A1.

The nature of data set [3]: Half-life period of the compound; NTD = Not time dependent. It counts as ADME.
Data set [4] deals with T1, Aromatase. Kind of data set: Inhibition constant for human placental Cytochrome P450 19A1.
In data set [5] the target is T1, Aromatase. In words: Inhibition of Cytochrome P450 19A1.
Data set [6] in a line: kinact was determined. Format: ADME.
Data set [7] has as its target T1, Aromatase. Kind of data set: Percent cytochrome P450 19A1 activity remaining after 10 minute pretreatment with 1 uM androstenedione.
For data set [8], the target named is T1, Aromatase. Kind of data set: Percent cytochrome P450 19A1 activity remaining after 5 minute pretreatment with 10 mM beta-mercaptoethanol.
Data set [9] addresses T1, Aromatase. Kind of data set: Percent cytochrome P450 19A1 activity remaining after 10 minute pretreatment with 0.5 mM beta-mercaptoethanol.
Data set [10] deals with T1, Aromatase. In words: Percent cytochrome P450 19A1 activity remaining after pretreatment with 1 uM androstenedione (t=0 control).
Data set [11] deals with T1, Aromatase. In words: Inhibition constant for human placental cytochrome P450 19A1.
The target of data set [12] is T1, Aromatase. In words: Percent cytochrome P450 19A1 activity remaining after 5 minute pretreatment with 1 uM androstenedione.
The target of data set [13] is T1, Aromatase. Kind of data set: Percent cytochrome P450 19A1 activity remaining after 10 minute pretreatment with 0.5 uM androstenedione.
The target in data set [14] is T1, Aromatase. In words: Percent cytochrome P450 19A1 activity remaining after pretreatment with 0.5 uM androstenedione (t=0 control).
For data set [15], the target named is T1, Aromatase. In words: Percent cytochrome P450 19A1 activity remaining after 5 minute pretreatment with 0.5 uM androstenedione.

In general, pIC50 refers to the IC50 on a negative log10 scale, so that one unit is a factor of ten. A high value points to a small IC50. Regarding `C[C@]12CCC(=O)C(SC(F)F)=C1CC[C@@H]1[C@@H]2CC[C@]2(C)C(=O)CC[C@@H]12`, the K inact result in data set [1] is listed as “Not time-dependent”. Moreover, the negative-log IC50 (pIC50) on Aromatase [2] was 5.57. Moreover, the T1/2 entry in data set [3] is on record as “Not time-dependent”.

One may read the pKi as the negative decadic logarithm of the Ki, by convention in mol/L. A low value points to a high Ki. Consider `C[C@]12CCC(=O)C(SCC#N)=C1CC[C@@H]1[C@@H]2CC[C@]2(C)C(=O)CC[C@@H]12`, for which the negative-log Ki (pKi) at Aromatase [4] was 6.77. In addition, on Aromatase [5], the negative logarithm of the IC50 (pIC50) was 5.43. In data set [6], the K inact was 1.2 10e-3 s-1.

On Aromatase [2], `C[C@]12CCC(=O)C(O)=C1CCC1C2=CC[C@]2(C)C(=O)CCC12` (stereo partly specified) showed a pIC50 of 6.46.

On to `C[C@]12CCC(=O)C(S)=C1CCC1C2CC[C@]2(C)C(=O)CCC12` (stereo partly specified), for which the pIC50 on Aromatase [5] is 5.46.

Take `COCOC1=C2CCC3C(CC[C@]4(C)C(=O)CCC34)[C@@]2(C)CCC1=O` (stereo partly specified): at Aromatase [2], the negative logarithm of the IC50 (pIC50) is 5.36. Moreover, in data set [6], the K inact result is reported as “Not time-dependent”.

`COCSC1=C2CCC3C(CC[C@]4(C)C(=O)CCC34)[C@@]2(C)CCC1=O` (stereo partly specified): at Aromatase [2], the pIC50 was 5.00. In addition, the K inact result in [6] was “Not time-dependent”.

For `CSC1=C2CCC3C(CC[C@]4(C)C(=O)CCC34)[C@@]2(C)CCC1=O` (stereo partly specified), the K inact result in data set [1] is given as “Not time-dependent”. Also, the pIC50 at Aromatase [2] is 5.36. For the same molecule, in data set [3], the T1/2 result is listed as “Not time-dependent”.

In the case of `CSCSC1=C2CCC3C(CC[C@]4(C)C(=O)CCC34)[C@@]2(C)CCC1=O` (stereo partly specified), the K inact entry in [1] is listed as “Not time-dependent”. On Aromatase [2], the negative-log IC50 (pIC50) is 5.92. Besides, the T1/2 entry in data set [3] is reported as “Not time-dependent”.

`C[C@]12CCC(=O)C(SCCl)=C1CCC1C2CC[C@]2(C)C(=O)CCC12` (stereo partly specified): the Activity was 10.2% at Aromatase [7]; 5% at Aromatase [8]; 59% at Aromatase [9]; 9.8% on Aromatase [10]; 32% and 36.8% at Aromatase [12]; 36.5% and 46% at Aromatase [13]. The figures for the Activity at Aromatase [14] and at Aromatase [15] were 49% and 70%, respectively. On Aromatase [2], the negative-log IC50 (pIC50) was 6.03. Besides, the pKi on Aromatase [11] was 7.52. Besides, the K inact in [6] is 3.8 10e-3 s-1.

In the case of `C[C@]12CCC(=O)C(S)=C1CCC1C2=CC[C@]2(C)C(=O)CCC12` (stereo partly specified), the negative-log IC50 (pIC50) against Aromatase [2] was 5.42. On Aromatase [11], this molecule showed a pKi of 7.14. For the same molecule, the K inact in data set [6] is reported as 3.9 10e-3 s-1.

`C[C@]12CCC(=O)C(SCF)=C1CCC1C2CC[C@]2(C)C(=O)CCC12` (stereo partly specified) showed a negative-log Ki (pKi) at Aromatase [4] of 7.52. This molecule also gave a negative logarithm of the IC50 (pIC50) against Aromatase [5] of 6.10. Further, the K inact in data set [6] is 3.1 10e-3 s-1.

For the molecule `C[C@]12CCC(=O)C(SCCl)=C1CCC1C2=CC[C@]2(C)C(=O)CCC12` (stereo partly specified), the negative-log IC50 (pIC50) at Aromatase [2] is 6.07. In addition, the pKi on Aromatase [11] is 7.57. Further, in data set [6], the K inact is listed as 4.8 10e-3 s-1.

In turn, `C[C@]12CCC(=O)C(O)=C1CC[C@@H]1[C@@H]2CC[C@]2(C)C(=O)CC[C@@H]12` [FORMESTANE] gave a pIC50 on Aromatase [2] of 6.43. Moreover, the pKi at Aromatase [11] is 7.57. The K inact in data set [6] is on record as 2.3 10e-3 s-1.

These data come from ChEMBL document CHEMBL1125454, “Synthesis and evaluation of a new series of mechanism-based aromatase inhibitors” (J Med Chem, 1992).
